Measurements as given in PubChem BioAssay (NCI).
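Step 1: Grow cells in 96-well plates. Step 2: Expose to compound for 48 hours at 5 concentrations. Step 3: Interpolate endpoints linearly; if unreached, use highest concentration. Here, GI50 denotes the concentration required for 50% inhibition of growth. TGI: total growth inhibition.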

Legend:
Assay in all cases: NCI-60 cell line screen, 48 h
[1] = tested on: SK-MEL-28 melanoma
[2] = tested on: RPMI-8226 leukemia
[3] = tested on: OVCAR-5 ovarian
[4] = tested on: SW-620 colon
[5] = tested on: SF-268 CNS
[6] = tested on: HOP-92 NSCLC
[7] = tested on: OVCAR-4 ovarian
[8] = tested on: LOX IMVI melanoma

Row | SMILES | TGI [1] | TGI [2] | TGI [3] | TGI [4] | TGI [5] | TGI [6] | TGI [7] | TGI [8] | GI50 [1] | GI50 [2] | GI50 [3] | GI50 [5] | GI50 [6] | GI50 [7] | GI50 [8]
1 | CC1=C(C(=O)Nc2ccccc2C)C(c2ccccc2O)C(C(=O)Nc2ccccc2C)=C(C)N1 | 59.1 µM | 66.8 µM | 82.2 µM | > 100 µM | 70.1 µM | > 100 µM | 54.8 µM | 44.6 µM |  |  |  |  |  |  | 
2 | C[C@H]1[C@H](C)CC[C@]2(C(=O)O)CCC3(COC(=O)/C=C/c4ccc(O)cc4)C(=CCC4[C@@]5(C)CC[C@H](O)C(C)(C)C5CC[C@]43C)[C@H]12 (some centres undefined) | 22.9 µM | 49.8 µM | 28.6 µM | 18 µM | 22.5 µM |  | 29.7 µM | 18.3 µM |  |  |  |  |  |  | 
3 | Cc1cc(=O)n2c(cc3cccccc32)n1 | > 100 µM | > 100 µM | > 100 µM | > 100 µM | > 100 µM |  | > 100 µM | > 100 µM |  |  |  |  |  |  | 
4 | CC(/C=C1\CCC(CN(C)C)C1=O)c1cccc(Br)c1 (centres undefined) | 31.5 µM | 6.08 µM | 43.8 µM | 26.2 µM | 43.7 µM | 33.5 µM | 32.3 µM |  |  |  |  |  |  |  | 
5 | Cc1ccc(-c2nc3ccccc3c(=O)n2NC2OC(CO)C(O)C(O)C2O)cc1 (centres undefined) | > 100 µM | > 100 µM | > 100 µM | > 100 µM | > 100 µM | > 100 µM | > 100 µM |  |  |  |  |  |  |  | 
6 | CCCc1nn(C)c(CCC(=O)N(Cc2ccccc2)Cc2ccccc2)c1CC | > 100 µM | > 100 µM | > 100 µM | > 100 µM | > 100 µM | > 100 µM | > 100 µM | > 100 µM |  |  |  |  |  |  | 
7 | O=C(CC1(O)C(=O)Nc2c(Cl)cc(Cl)cc21)c1ccc([N+](=O)[O-])cc1 (centres undefined) | > 59.6 µM | > 82.1 µM | > 100 µM | > 63 µM | > 100 µM | 75.5 µM | 31.2 µM | > 100 µM |  |  |  |  |  |  | 
8 | C=C(C)C1CC=C(C)C(O)([C@@]2(O)C[C@H](C(=C)C)CC=C2C)C1 (some centres undefined) | 95.9 µM | 48.7 µM | 63.5 µM | > 100 µM | > 100 µM | 40.6 µM | 56.2 µM | 26.9 µM |  |  |  |  |  |  | 
9 | COC(=O)/C(=N\Nc1nc(=S)[nH]n1N)C(C#N)c1ccc(Cl)cc1 (centres undefined) | > 100 µM | > 100 µM | > 100 µM | > 100 µM | > 100 µM | > 100 µM | > 100 µM | > 100 µM |  |  |  |  |  |  | 
10 | Nc1nc(N)c(CCCCc2ccccc2)c(/C=C/c2ccc([N+](=O)[O-])cc2)n1 | 12.8 µM | 19 µM | 15.8 µM | 5.91 µM | 48.2 µM | 2.21 µM | 18.4 µM | 13.5 µM |  |  |  |  |  |  | 
11 | CC(=O)CCn1[nH]c(=O)c(Cl)c(Cl)c1=O | > 100 µM | > 100 µM | > 100 µM | 45.3 µM | > 100 µM | > 100 µM | > 100 µM | > 100 µM |  |  |  |  |  |  | 
12 | CC1(C)C2=CCCC(=O)[C@@]2(C)CC[C@@H]1O | > 100 µM | > 100 µM | > 100 µM | > 100 µM | > 100 µM | > 100 µM | > 100 µM | > 100 µM |  |  |  |  |  |  | 
13 | CCCCCC1CC=CC(NC(=O)OCc2ccccc2)C1/C=C/CCCC1OCCO1 (centres undefined) | > 100 µM | > 100 µM | > 100 µM | > 100 µM | > 100 µM | > 100 µM | > 100 µM | > 100 µM |  |  |  |  |  |  | 
14 | CC1(C)C=C(N2CCN(C3=CC(C)(C)NC(C)(C)C3)CC2)CC(C)(C)N1 | > 100 µM | > 100 µM | > 100 µM | > 100 µM | > 100 µM | > 100 µM | > 100 µM | > 100 µM |  |  |  |  |  |  | 
15 | CCCCCCCCCCCCCP(=O)(OC)OC | 39.1 µM | 50.7 µM | 30.6 µM | 32.4 µM |  | 35 µM | 34.6 µM | 35.3 µM |  |  |  |  |  |  | 
16 | C=C1CCCC2OC(OC)CCC12 (centres undefined) |  | > 100 µM | > 100 µM | > 100 µM | > 100 µM | > 100 µM | > 100 µM |  |  |  |  |  |  |  | 
17 | CCCCCCCCC1C(C)c2c([nH]c3ccccc23)C2C(=O)N(c3ccccc3)C(=O)C21 (centres undefined) | 34.3 µM | 12.9 µM | 33.6 µM | 41.5 µM |  |  | 15.8 µM |  |  |  |  |  |  |  | 
18 | CC(O)(c1ccc(OCCC[N+](C)(C)C)cc1)C(C)(O)c1ccc(OCCC[N+](C)(C)C)cc1 (centres undefined) | > 100 µM |  | > 100 µM | > 100 µM | > 100 µM | > 100 µM | > 100 µM | > 100 µM |  |  |  |  |  |  | 
19 | CC[C@@]1(O)C(=O)OCc2c1cc1n(c2=O)Cc2cc3cccc(N)c3nc2-1 | > 100 µM | > 100 µM | > 100 µM |  | > 100 µM | > 100 µM | > 100 µM | 37.2 µM | > 100 µM | > 100 µM | 25.8 µM | 2.51 µM | > 100 µM | 7.57 µM | 4.19 µM
20 | COC(=O)/C=C(C)/C=C/c1c(C)c(C(C)=O)c(C)n1C |  | > 100 µM | > 100 µM | > 100 µM | > 100 µM | 92.8 µM | > 100 µM | > 100 µM |  |  |  |  |  |  | 
